From PMC8286840, “Identifying SARS-CoV-2 antiviral compounds by screening for small molecule inhibitors of Nsp3 papain-like protease” (Biochemical Journal, 2021)
Where a name gives a salt, the structure may show the parent alone. Read-outs that look alike come from different tables or passages of the source.

What was measured:
[1] = molecular target: T1, SARS-CoV-2 PLpro (nsp3 1564–1878) (Severe acute respiratory syndrome coronavirus 2, UniProt P0DTD1); assay: biochemical; parameters: FRET-quenched peptide (Pro3) cleavage by PLpro, 10 min pre-incubation, slope over 20 min, normalised to no-compound control; settings: high concentration screen, read-out: % of control remaining
[2] = molecular target: T1, SARS-CoV-2 PLpro (nsp3 1564–1878); assay: biochemical; parameters: FRET-quenched peptide (Pro3) cleavage by PLpro, 10 min pre-incubation, slope over 20 min, normalised to no-compound control; settings: low concentration screen, read-out: % of control remaining

## CC1=C(CC(=O)O)c2cc(F)ccc2/C1=C\c1ccc([S+](C)[O-])cc1 (stereo not drawn) [Sulindac]
[1]; Well no.=1270
  remaining activity at 3.75 µM: 105%
[1]; Well no.=1756
  remaining activity at 3.75 µM: 96.7%
[2]; Well no.=1270
  remaining activity at 1.25 µM: 102%
[2]; Well no.=1756
  remaining activity at 1.25 µM: 98.1%

## CCN1CCCC1CNC(=O)c1cc(S(N)(=O)=O)ccc1OC (stereo not drawn) [Sulpiride]
[1]; Well no.=6423
  remaining activity at 3.75 µM: 97.9%
[2]; Well no.=6423
  remaining activity at 1.25 µM: 99.1%

## CN[C@@H]1Cc2cccc3[nH]c(=O)n(c23)C1 [Sumanirole maleate]
[1]; Well no.=5386
  remaining activity at 3.75 µM: 104%
[2]; Well no.=5386
  remaining activity at 1.25 µM: 99.1%

## CNS(=O)(=O)Cc1ccc2[nH]cc(CCN(C)C)c2c1 [Sumatriptan (succinate)]
[1]; Well no.=6379
  remaining activity at 3.75 µM: 91%
[2]; Well no.=6379
  remaining activity at 1.25 µM: 104%

## CNS(=O)(=O)Cc1ccc2[nH]cc(CCN(C)C)c2c1 [Sumatriptan Succinate]
[1]; Well no.=2085
  remaining activity at 3.75 µM: 97.6%
[2]; Well no.=2085
  remaining activity at 1.25 µM: 96.9%

## CCN(CC)CCNC(=O)c1c(C)[nH]c(/C=C2\C(=O)Nc3ccc(F)cc32)c1C [Sunitinib]
[1]; Well no.=2703
  remaining activity at 3.75 µM: 100%
[2]; Well no.=2703
  remaining activity at 1.25 µM: 102%

## O=S(=O)(O)c1ccc(N=Nc2c(O)ccc3cc(S(=O)(=O)O)ccc23)cc1 [Sunset Yellow FCF]
[1]; Well no.=8500
  remaining activity at 3.75 µM: 92.1%
[2]; Well no.=8500
  remaining activity at 1.25 µM: 95.1%

## CCOCC(O)COc1ccc(NC(=O)CC[S+](C)C)cc1 (stereo not drawn) [Suplatast tosylate]
[1]; Well no.=4714
  remaining activity at 3.75 µM: 106%
[2]; Well no.=4714
  remaining activity at 1.25 µM: 107%

## Cc1ccc(C(=O)Nc2ccc(S(=O)(=O)O)c3cc(S(=O)(=O)O)cc(S(=O)(=O)O)c23)cc1NC(=O)c1cccc(NC(=O)Nc2cccc(C(=O)Nc3cc(C(=O)Nc4ccc(S(=O)(=O)O)c5cc(S(=O)(=O)O)cc(S(=O)(=O)O)c45)ccc3C)c2)c1 [Suramin (sodium salt)]
[1]; Well no.=8141
  remaining activity at 3.75 µM: 98.9%
[2]; Well no.=8141
  remaining activity at 1.25 µM: 105%

## Cc1ccc(C(=O)Nc2ccc(S(=O)(=O)O)c3cc(S(=O)(=O)O)cc(S(=O)(=O)O)c23)cc1NC(=O)c1cccc(NC(=O)Nc2cccc(C(=O)Nc3cc(C(=O)Nc4ccc(S(=O)(=O)O)c5cc(S(=O)(=O)O)cc(S(=O)(=O)O)c45)ccc3C)c2)c1 [Suramin]
[1]; Well no.=1622
  remaining activity at 3.75 µM: 96.7%
[2]; Well no.=1622
  remaining activity at 1.25 µM: 99.2%

## O[C@H]1[C@H]2[C@H](O)CCCN2C[C@H]1O [Swainsonine]
[1]; Well no.=3176
  remaining activity at 3.75 µM: 100%
[2]; Well no.=3176
  remaining activity at 1.25 µM: 97.3%

## O=[N+]([O-])/C=C/c1ccc2c(c1)OCO2 [Syk Inhibitor III]
[1]; Well no.=2599
  remaining activity at 3.75 µM: 97.6%
[2]; Well no.=2599
  remaining activity at 1.25 µM: 97.9%

## NCCNc1ncc(C(N)=O)c(Nc2cccc(C(F)(F)F)c2)n1 [Syk Inhibitor II]
[1]; Well no.=2597
  remaining activity at 3.75 µM: 101%
[2]; Well no.=2597
  remaining activity at 1.25 µM: 99.7%

## Cn1cc(/C=C2\C(=O)Nc3ccc(S(N)(=O)=O)cc32)c2ccccc21 [Syk Inhibitor]
[1]; Well no.=2595
  remaining activity at 3.75 µM: 96.7%
[2]; Well no.=2595
  remaining activity at 1.25 µM: 96.8%

## CNCC(O)c1ccc(O)cc1 (stereo not drawn) [Synephrine (hydrochloride)]
[1]; Well no.=6699
  remaining activity at 3.75 µM: 101%
[2]; Well no.=6699
  remaining activity at 1.25 µM: 100%

## CNCC(O)c1ccc(O)cc1 (stereo not drawn) [Synephrine HCl]
[1]; Well no.=4900
  remaining activity at 3.75 µM: 91.7%
[2]; Well no.=4900
  remaining activity at 1.25 µM: 95.6%

## CCOC(=O)Oc1c(OC)cc(C(=O)O[C@@H]2C[C@@H]3CN4CCc5c([nH]c6cc(OC)ccc56)[C@H]4C[C@@H]3[C@H](C(=O)OC)[C@H]2OC)cc1OC [Syrosingopine]
[1]; Well no.=3310
  remaining activity at 3.75 µM: 98.6%
[2]; Well no.=3310
  remaining activity at 1.25 µM: 100%

## Cc1cc(C(=O)Nc2cccc(C(=O)Nc3cccc(C(F)(F)F)c3)c2)on1 [T56-LIMKi]
[1]; Well no.=5920
  remaining activity at 3.75 µM: 98.1%
[2]; Well no.=5920
  remaining activity at 1.25 µM: 101%

## O=C(Nc1ccncc1)c1cc([N+](=O)[O-])ccc1Cl [T0070907]
[1]; Well no.=4833
  remaining activity at 3.75 µM: 106%
[2]; Well no.=4833
  remaining activity at 1.25 µM: 103%

## COC(=O)c1c(-c2cc(OC)c(OC)c(OC)c2)c2ccnc(OCc3ncccn3)c2c(=O)n1Cc1ccnc(C)c1 [T-0156]
[1]; Well no.=1230
  remaining activity at 3.75 µM: 102%
[2]; Well no.=1230
  remaining activity at 1.25 µM: 102%

## COc1cn(-c2ccc(-n3cccn3)cc2F)nc(-c2ccnn2-c2ccccc2)c1=O [TAK-063]
[1]; Well no.=8728
  remaining activity at 3.75 µM: 94.2%
[2]; Well no.=8728
  remaining activity at 1.25 µM: 98.2%

## CC(=O)N1CCC(C(=O)N(CCCN2CCC(Cc3ccc(C(N)=O)cc3)CC2)c2ccc(C)c(Cl)c2)CC1 [TAK-220]
[1]; Well no.=8363
  remaining activity at 3.75 µM: 92.9%
[2]; Well no.=8363
  remaining activity at 1.25 µM: 94.6%

## NS(=O)(=O)OC[C@H]1C[C@@H](Nc2ccnc3cc(-c4cccc(SC(F)(F)F)c4)nn23)[C@H](O)[C@@H]1O [TAK-243]
[1]; Well no.=7078
  remaining activity at 3.75 µM: 97%
[2]; Well no.=7078
  remaining activity at 1.25 µM: 102%

## CC(C)(O)CC(=O)NCCn1ccc2ncnc(Nc3ccc(Oc4cccc(C(F)(F)F)c4)c(Cl)c3)c21 [TAK-285]
[1]; Well no.=4743
  remaining activity at 3.75 µM: 104%
[2]; Well no.=4743
  remaining activity at 1.25 µM: 102%

## CNCc1cc(-c2ccccc2F)n(S(=O)(=O)c2cccnc2)c1 [TAK-438]
[1]; Well no.=4794
  remaining activity at 3.75 µM: 93%
[2]; Well no.=4794
  remaining activity at 1.25 µM: 91.8%

## CNC(=O)c1ccc2cc([C@@]3(O)CCn4cncc43)ccc2c1 [TAK-700 (Orteronel)]
[1]; Well no.=4725
  remaining activity at 3.75 µM: 96.7%
[2]; Well no.=4725
  remaining activity at 1.25 µM: 98.2%

## CCc1nc(-c2cccc(C)c2)c(-c2ccnc(NC(=O)c3ccccc3)c2)s1 [TAK-715]
[1]; Well no.=2751
  remaining activity at 3.75 µM: 104%
[2]; Well no.=2751
  remaining activity at 1.25 µM: 99.2%

## Cn1c(=O)c(F)c(Nc2ccc(I)cc2F)c2c(=O)n(C[C@@H](O)CO)cnc21 [TAK-733]
[1]; Well no.=4954
  remaining activity at 3.75 µM: 97.8%
[2]; Well no.=4954
  remaining activity at 1.25 µM: 101%

## Cc1ccc(-c2ccc3c(c2)C=C(C(=O)Nc2ccc(C[N+](C)(C)C4CCOCC4)cc2)CCC3)cc1 [TAK-779]
[1]; Well no.=8357
  remaining activity at 3.75 µM: 101%
[2]; Well no.=8357
  remaining activity at 1.25 µM: 102%

## Cc1cc(OCCCS(C)(=O)=O)cc(C)c1-c1cccc(COc2ccc3c(c2)OC[C@H]3CC(=O)O)c1 [TAK-875]
[1]; Well no.=4966
  remaining activity at 3.75 µM: 91.6%
[1]; Well no.=7771
  remaining activity at 3.75 µM: 103%
[2]; Well no.=4966
  remaining activity at 1.25 µM: 96.6%
[2]; Well no.=7771
  remaining activity at 1.25 µM: 107%

## CCS(=O)(=O)c1cccc(-c2cc(C(=O)NC3CCN(C)CC3)c(C)c3[nH]c4ncc(C)cc4c23)c1 [TAK-901]
[1]; Well no.=4691
  remaining activity at 3.75 µM: 100%
[2]; Well no.=4691
  remaining activity at 1.25 µM: 96.9%

## Brc1c(Br)c(Br)c2n[nH]nc2c1Br [TBB - 4,5,6,7-Tetrabromobenzotriazole]
[1]; Well no.=2494
  remaining activity at 3.75 µM: 103%
[2]; Well no.=2494
  remaining activity at 1.25 µM: 100%

## O=C1OC(/C=C/c2ccccc2)=NC/1=C/c1cccnc1 [TC-DAPK 6]
[1]; Well no.=6734
  remaining activity at 3.75 µM: 90.3%
[2]; Well no.=6734
  remaining activity at 1.25 µM: 96.1%

## CNc1nc(NCc2ccc(NS(C)(=O)=O)cc2Cl)cc(-c2ccccn2)n1 [TC-G-1008]
[1]; Well no.=7769
  remaining activity at 3.75 µM: 95.1%
[2]; Well no.=7769
  remaining activity at 1.25 µM: 98.1%
